Source: ChEMBL document CHEMBL5579831, “Discovery of novel CXCR4 inhibitors for the treatment of inflammation by virtual screening and biological evaluation” (Eur J Med Chem, 2024)
Active and inactive are the calls of the source. The rule behind the calls is not given here.

Columns and labels:
[1] = molecular target: T1, C-X-C chemokine receptor type 4 (Homo sapiens, UniProt P61073); assay: Inhibition of fluorescently labeled 12G5 antibodies binding to CXCR4 in human MDA-MB-231 cells assessed as change in fluorescence intensity incubated for 3 hrs under dark condition by FACS assay; type: cell-based
T1 sequence (P61073 whole entry): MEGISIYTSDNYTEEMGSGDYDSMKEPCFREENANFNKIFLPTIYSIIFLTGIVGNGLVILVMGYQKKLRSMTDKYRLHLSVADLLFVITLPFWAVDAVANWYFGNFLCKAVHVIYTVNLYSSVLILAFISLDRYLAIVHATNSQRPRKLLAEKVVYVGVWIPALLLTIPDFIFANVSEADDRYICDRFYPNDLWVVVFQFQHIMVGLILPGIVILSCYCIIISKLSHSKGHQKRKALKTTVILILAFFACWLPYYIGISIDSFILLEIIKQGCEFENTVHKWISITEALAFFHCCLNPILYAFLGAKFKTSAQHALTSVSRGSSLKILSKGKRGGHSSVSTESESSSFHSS

[2] = system: MDA-MB-231; assay: Inhibition of CXCR4/CXCL12 interaction in human MDA-MB-231 cells assessed as reduction in cell invasion at 100 nM measured after 24 hrs by H and E staining based matrix gel invasion assay
[3] = system: MDA-MB-231; assay: Inhibition of cell migration in human MDA-MB-231 cells at 100 nM measured after 24 hrs by wound healing based inverted microscopic analysis; type: functional
[4] = system: MDA-MB-231; assay: Inhibition of CXCR4/CXCL12-mediated AKT phosphorylation in human MDA-MB-231 cells by Western blot analysis; type: cell-based; conditions: dose 0.1-100 nM
[5] = molecular target: T1, C-X-C chemokine receptor type 4; assay: Binding affinity to CXCR4 in human MDA-MB-231 cells assessed as increase in thermal stability at 50 to 55 degreeC at 100 nM incubated for 12 hrs by CETSA; type: cell-based
[6] = system: Mus musculus; assay: Antiinflammatory activity in ip dosed xylene-induced mouse ear swelling model assessed as reduction in ear swelling pretreated with xylene for 30 mins followed by compound addition and measured after 2 hrs; type: functional, organism-based; conditions: dose 10-30 mg/kg
[7] = system: Mus musculus; assay: Antiinflammatory activity in xylene-induced mouse ear swelling model assessed as reduction in inflammatory cell infiltration at 10 to 30 mg/kg, ip pretreated with xylene for 30 mins followed by compound addition and measured after 2 hrs by H and E staining based light microscopic analysis; type: functional, organism-based; conditions: dose 10-30 mg/kg
[8] = Toxicity in ip dosed mouse assessed as median lethal dose by Bliss method; type: organism-based; conditions: in vivo, read-out: LD
[9] = system: MDA-MB-231; assay: Cytotoxicity against human MDA-MB-231 cells assessed as reduction in cell viability at 10 uM incubated for 24 hrs by MTT assay; type: toxicity, cell-based; conditions: mda-mb-231, 24 h

## O=S(=O)(NCC1CCCO1)c1ccc(Oc2ccc(S(=O)(=O)NCC3CCCO3)cc2)cc1 (centres undefined)
[1]
  IC50: 0.254 µM
[2]
  inhibition: Active
[3]
  inhibition: Active
[4]
  inhibition: Dose-Dependent Effect
[5]
  Activity: Active
[6]
  Activity: Dose-Dependent Effect
[7]
  Activity: Active
[8]
  LD50: 72.6 mg/kg
[9]
  Activity: Non-Toxic
